Assay results published in patent US20240174603A1 (Rappta Therapeutics Oy, priority 2021, published 2024).

tested on: LNCaP cells; test: LNCaP cell viability assay (MTS); type: cell-based; settings: Homo sapiens, LNCaP, 48 h, LNCaP cell line
Summary of the method: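 GI50 derived by nonlinear four-parameter curve fitting (bottom fixed at zero) of MTS viability data. Prostate LNCaP cells seeded at 5000/well were given compound doses from 1 to 80 µM one day after plating and assayed after 48 h of exposure.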

Row | SMILES | GI50 [µM]
1 | CN(C)CC(NS(=O)(=O)c1ccc(F)cc1)c1ccc(Cl)c(Cl)c1 (stereo not drawn) [Compound 130, N-(1-(3,4-dichlorophenyl)-2-(dimethylamino)ethyl)-4-fluorobenzenesulfonamide] | 62.4
2 | CCOc1ccccc1CNS(=O)(=O)c1ccc(OC(F)(F)F)cc1 [Compound 76, N-(2-ethoxybenzyl)-4-(trifluoromethoxy)benzenesulfonamide] | 60
3 | CCc1ccc(S(=O)(=O)NC(CN(C)C)c2ccc(Cl)c(Cl)c2)cc1 (stereo not drawn) [Compound 212, N-(1-(3,4-dichlorophenyl)-2-(dimethylamino)ethyl)-4-ethylbenzenesulfonamide] | 34.6
4 | CN1CCN(CC(NS(=O)(=O)c2ccc(OC(F)(F)F)cc2)c2ccc(Cl)c(Cl)c2)CC1 (stereo not drawn) [Compound 185, N-(1-(3,4-dichlorophenyl)-2-(4-methylpiperazin-1-yl)ethyl)-4-(trifluoromethoxy)benzenesulfonamide] | 12.6
5 | CN=S(=O)(NC(CN(C)C)c1ccc(Cl)c(Cl)c1)c1ccc(OC(F)(F)F)cc1 (stereo not drawn) [Compound 126, N-(1-(3,4-dichlorophenyl)-2-(dimethylamino)ethyl)-N′-methyl-4-(trifluoromethoxy)benzenesulfonimidamide] | 24.9
6 | CN(C)CC(NS(=O)(=O)C1CCCCC1)c1ccc(Cl)c(Cl)c1 (stereo not drawn) [Compound 135, N-(1-(3,4-dichlorophenyl)-2-(dimethylamino)ethyl)cyclohexanesulfonamide] | 57.3
7 | O=S(=O)(NC(c1ccc(F)cc1)C1CCCO1)c1ccc(OC(F)(F)F)cc1 (stereo not drawn) [Compound 101, N-((4-fluorophenyl)(tetrahydrofuran-2-yl)methyl)-4-(trifluoromethoxy)benzenesulfonamide] | 33
8 | CN(C)CC(NS(=O)(=O)c1ccc(OC(F)(F)F)c(N)c1)c1ccc(Cl)c(Cl)c1 (stereo not drawn) [Compound 176, 3-amino-N-(1-(3,4-dichlorophenyl)-2-(dimethylamino)ethyl)-4-(trifluoromethoxy)benzenesulfonamide] | 31.4
9 | CCn1nc(C(F)(F)F)cc1COCCNS(=O)(=O)c1ccc(OC(F)(F)F)cc1 [Compound 90, N-(2-((1-ethyl-3-(trifluoromethyl)-1H-pyrazol-5-yl)methoxy)ethyl)-4-(trifluoromethoxy)benzenesulfonamide] | 28
10 | CN(C)C(=O)C(NS(=O)(=O)c1ccc(OC(F)(F)F)cc1)c1ccc(Cl)c(Cl)c1 (stereo not drawn) [Compound 255, 2-(3,4-dichlorophenyl)-N,N-dimethyl-2-((4-(trifluoromethoxy)phenyl)sulfonamido)acetamide] | 38.5
11 | Cn1ccc(S(=O)(=O)NCC(NS(=O)(=O)c2ccc(OC(F)(F)F)cc2)c2ccccc2)c1 (stereo not drawn) [Compound 124, 1-methyl-N-(2-phenyl-2-((4-(trifluoromethoxy)phenyl)sulfonamido)ethyl)-1H-pyrrole-3-sulfonamide] | 49.7
12 | CN1CCN(CC(NS(=O)(=O)c2ccc(OC(F)(F)F)cc2)c2ccc(Cl)cc2)CC1 (stereo not drawn) [Compound 184, N-(1-(4-chlorophenyl)-2-(4-methylpiperazin-1-yl)ethyl)-4-(trifluoromethoxy)benzenesulfonamide] | 23.4
13 | O=S(=O)(NC(CN1CCNCC1)c1ccc(F)cc1)c1ccc(OC(F)(F)F)cc1 (stereo not drawn) [Compound 264, N-(1-(4-fluorophenyl)-2-(piperazin-1-yl)ethyl)-4-(trifluoromethoxy)benzenesulfonamide] | 43.1

same assay, conditions: LNCaP cell line, 48 hours

Row | SMILES | GI50 [µM]
14 | CN(C)CC(NS(=O)(=O)c1cccc(-c2ccccc2)c1)c1ccc(Cl)c(Cl)c1 (single isomer, unassigned) [Compound 198, N-(1-(3,4-dichlorophenyl)-2-(dimethylamino)ethyl)-[1,1′-biphenyl]-3-sulfonamide] | 12.5
15 | O=S(=O)(NC(CN1CC2CC1CN2)c1ccc(Cl)c(Cl)c1)c1ccc(OC(F)(F)F)cc1 (single isomer, unassigned) [Compound 261b, N-(2-(2,5-diazabicyclo[2.2.1]heptan-2-yl)-1-(3,4-dichlorophenyl)ethyl)-4-(trifluoromethoxy)benzenesulfonamide] | 9.79
